From paper PMC7827217, “Probing the Binding Requirements of Modified Nucleosides with the DNA Nuclease SNM1A” (Molecules, 2021)

Tests used:
SNM1A = tested on: SNM1A; parameters: method as in PMID 31380542; details: previous work; cited from earlier work
[1] = target: T1, recombinant SNM1A (698-1040) (Homo sapiens, UniProt Q6PJP8); experiment: Gel-based SNM1A inhibition assay (digestion of fluorescent 21-mer oligonucleotide substrate, denaturing PAGE); type: biochemical; details: for Lowest Inhibitory Concentration: concentration gradient 1 mM to 1 µM, approximately 3-fold dilutions, 60 min at 37 °C; for Lowest Inhibitory Concentration / Inhibition of SNM1A (extent of digestion of substrate): SNM1A 2.5 nM, substrate 80 nM, 5 min preincubation; for Inhibition of SNM1A (extent of digestion of substrate): 1 mM compound, 60 min incubation (Figure 2c)
T1 construct: SNM1A (698-1040) was expressed and purified as described by Allerston et al; made in house
T1 sequence (Q6PJP8 698-1040): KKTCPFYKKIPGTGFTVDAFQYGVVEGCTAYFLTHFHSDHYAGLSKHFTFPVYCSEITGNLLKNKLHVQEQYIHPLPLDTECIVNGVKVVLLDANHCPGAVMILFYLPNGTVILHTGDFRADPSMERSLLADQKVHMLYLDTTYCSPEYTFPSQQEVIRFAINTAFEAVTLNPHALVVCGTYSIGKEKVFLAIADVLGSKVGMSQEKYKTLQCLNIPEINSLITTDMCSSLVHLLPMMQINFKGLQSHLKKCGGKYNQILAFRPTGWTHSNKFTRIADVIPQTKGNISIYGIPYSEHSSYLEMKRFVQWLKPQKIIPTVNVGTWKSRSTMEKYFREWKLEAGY
Description: The twelve modified nucleosides (Figure 2a) were evaluated as inhibitors of recombinant SNM1A to evaluate binding to the active site, using a previously reported gel-based assay with the same 21-mer oligonucleotide substrate. The nucleosides were incubated with SNM1A for 5 min prior to the addition of the fluorescently tagged 21-mer oligonucleotide substrate and further incubation for 1 h. In the event of the nucleoside binding to the active site, digestion of the substrate proceeds less efficiently (Figure 2b). SNM1A removes nucleotide monomers from the 5′-end, generating a shorter oligonucleotide that in turn is a substrate for SNM1A and can be digested further. The size of the oligonucleotide products, analysed by gel electrophoresis, therefore indicates how strongly a compound binds to the nuclease.
SNM1A (698-1040) was expressed and purified as described by Allerston et al..
SNM1A (698-1040) was stored as a 1.0 µM solution in reaction buffer (20 mM HEPES-KOH, pH 7.5, 50 mM KCl, 10 mM MgCl2, 0.05% Triton-X, 0.1 mg/mL BSA, 5% glycerol, 0.5 mM DTT). An oligonucleotide of the sequence 5′-TTAGCAGTCAGTCAGTCATCG-Cy3-3′ was phosphorylated using T4 PNK (New England Biolabs) and used as the substrate. Modified nucleosides were added to the assay in 40% DMSO solution (10 mM or as specified). Fluorescent oligonucleotides were protected from light during incubations and gel electrophoresis.
Modified nucleosides (10 nmol or as specified) were mixed with SNM1A (698–1040) (25 fmol) in reaction buffer containing 4% DMSO (10 µL) on ice and incubated at 37 °C for 5 min. Phosphorylated oligonucleotide (0.8 pmol) was added and the reaction was incubated at 37 °C for 60 min. The reaction was stopped by the addition of stop solution (2 µL, 95% formamide, 10 mM EDTA) followed by heating to 95 °C for 3 min. The products of the reaction were analysed using gel electrophoresis; 3 µL of each reaction was used.
Oligonucleotides were separated on a 15% acrylamide 6.5 M urea gel (2.9 g urea, 2.7 mL 40% acrylamide-bisacrylamide 25:1, 1.4 mL 5× TBE (0.45 M Tris, 0.45 M boric acid, 0.01 M EDTA pH 8.0), 0.6 mL H2O) in 1X TBE at 150 V for 90 min alongside bromophenol blue and xylene cyanol as markers for 8 and 28 nt, respectively, and imaged using Typhoon FLA 9500.
Figure 2 Evaluation of modified (di)nucleosides as inhibitors of SNM1A. (a) Structures of the twelve (di)nucleosides that were evaluated as inhibitors of SNM1A; (b) schematic representation of assay; (c) gel electrophoresis showing the extent of digestion of fluorescent 21-mer oligonucleotide substrate. SNM1A (2.5 nM) was pre-incubated with the modified (di)nucleosides (1 mM) for 5 min before the oligonucleotide substrate (80 nM) was added and a further 60 min incubation. nt = nucleotides.
Figure 3 Concentration dependence of 5′-C-linked malonate nucleoside 11. Digestion of the phosphorylated oligonucleotide (80 nM) after incubation with SNM1A (2.5 nM) and nucleoside 11 (1000–1 µM) or thymidine (T) (1 mM) for 60 min at 37 °C, analysed by denaturing PAGE. SNM1A was preincubated with the modified nucleoside for 5 min at 37 °C prior to the addition of the substrate. nt = nucleotides.

## Cc1cn([C@H]2C[C@H](O)[C@@H](C(=O)NO)O2)c(=O)[nH]c1=O [Compound 1]
SNM1A
  Inhibition of SNM1A: inhibit SNM1A to varying degrees

## Cc1cn([C@H]2C[C@H](O)[C@@H](CCC(=O)NO)O2)c(=O)[nH]c1=O [Compound 2]
SNM1A
  Inhibition of SNM1A: inhibit SNM1A to varying degrees

## COC(=O)C(C[C@H]1O[C@@H](n2cc(C)c(=O)[nH]c2=O)C[C@@H]1O)C(=O)O (stereo partly shown) [Compound 9, C-(5′-Deoxythymidin-5′-yl) monomethyl sodium malonate]
[1]
  Lowest Inhibitory Concentration: 333 µM

## Cc1cn([C@H]2C[C@H](O)[C@@H](CC(C(=O)O)C(=O)O)O2)c(=O)[nH]c1=O [Compound 10, C-(5′-Deoxythymidin-5′-yl) disodium malonate]
[1]
  Lowest Inhibitory Concentration: 333 µM

## Cc1cn([C@H]2C[C@H](O)[C@@H](CC(C(=O)O)C(=O)NO)O2)c(=O)[nH]c1=O (stereo partly shown) [Compound 11, C-(5′-deoxythymidin-5′-yl) sodium N-hydroxymalonamide]
[1]
  Inhibition of SNM1A (extent of digestion of substrate): most potent overall
  Lowest Inhibitory Concentration: 33 µM
[1]; various concentrations, Figure 5b
  Potency compared with previously reported compounds: slightly lower potency than compound 1

## Cc1cn([C@H]2C[C@H](O)[C@@H](CNC(=O)CC(=O)NO)O2)c(=O)[nH]c1=O [Compound 15, N-(5′-Deoxythymidin-5′-yl) amido N-hydroxymalonamide]
[1]
  Inhibition of SNM1A (extent of digestion of substrate): binds SNM1A
  Lowest Inhibitory Concentration: 333 µM

## COC(=O)CC(=O)NC1CC(n2cc(C)c(=O)[nH]c2=O)OC1CO (stereo not shown) [Compound 26, N-(3′-Deoxythymidin-3′-yl) amido methyl malonamide]
[1]
  Inhibition of SNM1A (extent of digestion of substrate): inactive

## Cc1cn([C@H]2C[C@H](NC(=O)CC(=O)O)[C@@H](CO)O2)c(=O)[nH]c1=O [Compound 27, N-(3′-Deoxythymidin-3′-yl) amido sodium malonamide]
[1]
  Lowest Inhibitory Concentration: 333 µM

## Cc1cn([C@H]2C[C@H](NC(=O)CC(=O)NO)[C@@H](CO)O2)c(=O)[nH]c1=O [Compound 28, N-(3′-Deoxythymidin-3′-yl) amido N-hydroxymalonamide]
[1]
  Lowest Inhibitory Concentration: 333 µM

## COC(=O)C(CC1OC(n2cc(C)c(=O)[nH]c2=O)CC1O)C(=O)NC1CC(n2cc(C)c(=O)[nH]c2=O)OC1CO (stereo not shown) [Compound 34, N-(3′-Deoxythymidin-3′-yl)-C-(5′-deoxythymidin-5′-yl) amido methyl malonate]
[1]
  Inhibition of SNM1A (extent of digestion of substrate): some inhibition
  Lowest Inhibitory Concentration: 1000 µM

## Cc1cn(C2CC(O)C(CC(C(=O)O)C(=O)NC3CC(n4cc(C)c(=O)[nH]c4=O)OC3CO)O2)c(=O)[nH]c1=O (stereo not shown) [Compound 35, N-(3′-Deoxythymidin-3′-yl)-C-(5′-deoxythymidin-5′-yl) amido sodium malonate]
[1]
  Inhibition of SNM1A (extent of digestion of substrate): approximately equal potency
  Lowest Inhibitory Concentration: 333 µM

## Cc1cn(C2CC(O)C(CC(C(=O)NO)C(=O)NC3CC(n4cc(C)c(=O)[nH]c4=O)OC3CO)O2)c(=O)[nH]c1=O (stereo not shown) [Compound 36, N-(3′-Deoxythymidin-3′-yl)-C-(5′-deoxythymidin-5′-yl) amido N-hydroxy malonamide]
[1]
  Inhibition of SNM1A (extent of digestion of substrate): approximately equal potency
  Lowest Inhibitory Concentration: 333 µM

## Cc1cn([C@H]2C[C@H](O)[C@@H](CO)O2)c(=O)[nH]c1=O [Thymidine, reference compound]
[1]
  Inhibition of SNM1A (extent of digestion of substrate): no effect on the hydrolysis of the substrate
